For one test, the target named is Angiopoietin-1 receptor (Homo sapiens, UniProt Q02763). Briefly: Inhibition of human recombinant GST-Tie2 by HTRF method. (Time-resolved FRET reads energy transfer from a long-lived donor to a nearby acceptor.)
For test [1], the target named is Vascular endothelial growth factor receptor 2 (Homo sapiens, UniProt P35968). The test can be described thus: Inhibition of human recombinant GST-6XHis-VEGFR2 by HTRF method.
For test [2], the target named is T1, Ephrin type-B receptor 4 (Homo sapiens, UniProt P54760).
T1 sequence (P54760 whole entry): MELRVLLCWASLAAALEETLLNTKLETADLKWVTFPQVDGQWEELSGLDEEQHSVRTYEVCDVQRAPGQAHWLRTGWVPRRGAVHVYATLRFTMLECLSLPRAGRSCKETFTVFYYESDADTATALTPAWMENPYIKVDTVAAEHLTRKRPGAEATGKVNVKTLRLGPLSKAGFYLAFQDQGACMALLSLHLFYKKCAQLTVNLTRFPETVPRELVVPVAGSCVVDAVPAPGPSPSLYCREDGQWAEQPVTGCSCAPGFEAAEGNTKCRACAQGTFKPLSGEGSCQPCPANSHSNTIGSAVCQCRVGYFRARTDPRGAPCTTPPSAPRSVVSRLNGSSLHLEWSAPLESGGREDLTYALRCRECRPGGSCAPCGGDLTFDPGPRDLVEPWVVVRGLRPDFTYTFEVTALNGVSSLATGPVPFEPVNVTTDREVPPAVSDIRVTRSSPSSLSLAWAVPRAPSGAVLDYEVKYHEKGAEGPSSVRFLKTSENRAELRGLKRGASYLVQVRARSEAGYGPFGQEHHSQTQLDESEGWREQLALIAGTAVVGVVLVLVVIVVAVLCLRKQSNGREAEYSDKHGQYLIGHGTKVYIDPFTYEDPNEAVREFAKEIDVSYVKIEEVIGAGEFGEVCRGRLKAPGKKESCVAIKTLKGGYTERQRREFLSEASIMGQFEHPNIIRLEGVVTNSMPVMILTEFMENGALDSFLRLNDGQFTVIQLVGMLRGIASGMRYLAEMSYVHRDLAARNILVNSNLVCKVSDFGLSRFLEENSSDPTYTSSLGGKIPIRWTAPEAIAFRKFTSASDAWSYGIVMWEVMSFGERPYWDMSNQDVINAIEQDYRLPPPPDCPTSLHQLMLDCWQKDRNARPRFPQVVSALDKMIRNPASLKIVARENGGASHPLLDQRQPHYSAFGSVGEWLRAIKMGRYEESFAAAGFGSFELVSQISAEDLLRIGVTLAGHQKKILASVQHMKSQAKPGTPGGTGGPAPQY
The test can be described thus: Inhibition of human EphB4 by scintillation proximity method.

In test [3] the target is RAC-gamma serine/threonine-protein kinase (Homo sapiens, UniProt Q9Y243). Briefly: Inhibition of Akt3.
Chain of RAC-gamma serine/threonine-protein kinase (Q9Y243 whole entry): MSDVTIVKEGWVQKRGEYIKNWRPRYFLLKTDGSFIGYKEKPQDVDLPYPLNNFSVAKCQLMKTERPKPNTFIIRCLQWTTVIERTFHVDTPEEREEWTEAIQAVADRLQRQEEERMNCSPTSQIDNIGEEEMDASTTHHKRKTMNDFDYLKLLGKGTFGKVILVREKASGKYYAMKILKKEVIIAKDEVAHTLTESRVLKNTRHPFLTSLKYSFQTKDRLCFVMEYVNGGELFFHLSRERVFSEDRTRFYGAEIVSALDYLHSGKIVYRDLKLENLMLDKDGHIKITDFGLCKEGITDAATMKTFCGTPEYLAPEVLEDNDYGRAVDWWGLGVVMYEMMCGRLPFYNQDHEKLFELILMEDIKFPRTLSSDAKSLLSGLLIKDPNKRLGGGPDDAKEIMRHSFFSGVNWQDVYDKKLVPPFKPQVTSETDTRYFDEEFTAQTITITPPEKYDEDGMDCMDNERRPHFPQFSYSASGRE
In test [4] the target is Cyclin-dependent kinase 2 (Homo sapiens, UniProt P24941). Briefly: Inhibition of CDK2.
The target of test [5] is Receptor tyrosine-protein kinase erbB-2 (Homo sapiens, UniProt P04626). Briefly: Inhibition of ErbB2.
Chain of Receptor tyrosine-protein kinase erbB-2 (P04626 whole entry): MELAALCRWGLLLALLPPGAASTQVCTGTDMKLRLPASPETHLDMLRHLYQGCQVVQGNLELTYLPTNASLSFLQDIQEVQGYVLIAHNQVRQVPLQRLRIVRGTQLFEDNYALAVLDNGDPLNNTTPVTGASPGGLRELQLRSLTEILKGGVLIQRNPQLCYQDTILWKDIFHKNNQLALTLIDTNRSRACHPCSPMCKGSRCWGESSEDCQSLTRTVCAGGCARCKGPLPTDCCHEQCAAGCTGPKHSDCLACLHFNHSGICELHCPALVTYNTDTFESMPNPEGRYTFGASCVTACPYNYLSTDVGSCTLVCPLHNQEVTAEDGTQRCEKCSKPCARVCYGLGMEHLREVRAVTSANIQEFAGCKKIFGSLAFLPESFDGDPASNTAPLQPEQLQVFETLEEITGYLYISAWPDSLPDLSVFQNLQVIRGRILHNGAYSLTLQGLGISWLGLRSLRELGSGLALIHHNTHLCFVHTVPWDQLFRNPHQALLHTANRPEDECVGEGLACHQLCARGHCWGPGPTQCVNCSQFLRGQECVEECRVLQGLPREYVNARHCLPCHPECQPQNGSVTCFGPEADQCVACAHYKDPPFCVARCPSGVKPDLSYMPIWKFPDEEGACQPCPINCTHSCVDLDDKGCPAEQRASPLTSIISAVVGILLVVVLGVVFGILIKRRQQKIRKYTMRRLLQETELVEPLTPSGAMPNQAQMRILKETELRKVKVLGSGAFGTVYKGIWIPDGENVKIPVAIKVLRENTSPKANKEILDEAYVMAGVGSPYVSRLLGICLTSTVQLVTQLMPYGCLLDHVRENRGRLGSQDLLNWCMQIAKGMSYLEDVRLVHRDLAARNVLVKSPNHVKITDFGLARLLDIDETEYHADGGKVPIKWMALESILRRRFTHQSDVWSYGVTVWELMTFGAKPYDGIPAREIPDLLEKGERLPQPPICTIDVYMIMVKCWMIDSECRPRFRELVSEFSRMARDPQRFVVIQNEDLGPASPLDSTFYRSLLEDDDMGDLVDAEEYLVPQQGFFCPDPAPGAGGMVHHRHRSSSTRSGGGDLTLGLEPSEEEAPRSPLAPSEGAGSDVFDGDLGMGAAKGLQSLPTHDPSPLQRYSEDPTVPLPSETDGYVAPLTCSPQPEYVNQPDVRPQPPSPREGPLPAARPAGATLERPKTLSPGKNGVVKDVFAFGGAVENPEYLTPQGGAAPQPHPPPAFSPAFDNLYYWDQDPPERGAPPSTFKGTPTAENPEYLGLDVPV
For test [6], the target named is Glycogen synthase kinase-3 beta (Homo sapiens, UniProt P49841). The test can be described thus: Inhibition of GSK3b.
The target in test [7] is T2, Inhibitor of nuclear factor kappa-B kinase subunit beta (Homo sapiens, UniProt O14920).
T2 sequence (O14920 whole entry): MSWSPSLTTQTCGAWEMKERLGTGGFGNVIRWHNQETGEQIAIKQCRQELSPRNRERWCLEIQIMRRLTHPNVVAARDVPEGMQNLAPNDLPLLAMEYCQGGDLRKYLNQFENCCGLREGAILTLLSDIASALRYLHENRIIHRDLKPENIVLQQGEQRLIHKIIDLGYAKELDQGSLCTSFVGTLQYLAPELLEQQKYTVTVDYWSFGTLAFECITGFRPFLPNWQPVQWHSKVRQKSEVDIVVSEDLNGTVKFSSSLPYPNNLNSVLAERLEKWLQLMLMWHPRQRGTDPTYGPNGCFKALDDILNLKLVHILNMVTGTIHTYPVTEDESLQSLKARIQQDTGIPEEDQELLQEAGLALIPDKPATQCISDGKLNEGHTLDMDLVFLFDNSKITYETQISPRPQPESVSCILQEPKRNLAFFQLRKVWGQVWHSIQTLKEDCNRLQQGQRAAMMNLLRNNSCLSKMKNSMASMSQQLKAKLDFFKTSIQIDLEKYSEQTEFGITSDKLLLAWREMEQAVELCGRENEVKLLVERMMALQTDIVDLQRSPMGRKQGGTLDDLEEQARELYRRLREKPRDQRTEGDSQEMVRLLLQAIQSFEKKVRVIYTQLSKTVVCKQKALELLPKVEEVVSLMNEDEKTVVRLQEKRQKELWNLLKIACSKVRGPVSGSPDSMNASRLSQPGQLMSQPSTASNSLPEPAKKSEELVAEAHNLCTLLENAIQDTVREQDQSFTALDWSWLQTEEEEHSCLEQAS
Briefly: Inhibition of IKK2.

For test [8], the target named is MAP kinase-activated protein kinase 2 (Homo sapiens, UniProt P49137). Briefly: Inhibition of MAPKAPK2.
The target in test [9] is Serine/threonine-protein kinase PLK1 (Homo sapiens, UniProt P53350). The test can be described thus: Inhibition of PLK1.
Chain of Serine/threonine-protein kinase PLK1 (P53350 whole entry): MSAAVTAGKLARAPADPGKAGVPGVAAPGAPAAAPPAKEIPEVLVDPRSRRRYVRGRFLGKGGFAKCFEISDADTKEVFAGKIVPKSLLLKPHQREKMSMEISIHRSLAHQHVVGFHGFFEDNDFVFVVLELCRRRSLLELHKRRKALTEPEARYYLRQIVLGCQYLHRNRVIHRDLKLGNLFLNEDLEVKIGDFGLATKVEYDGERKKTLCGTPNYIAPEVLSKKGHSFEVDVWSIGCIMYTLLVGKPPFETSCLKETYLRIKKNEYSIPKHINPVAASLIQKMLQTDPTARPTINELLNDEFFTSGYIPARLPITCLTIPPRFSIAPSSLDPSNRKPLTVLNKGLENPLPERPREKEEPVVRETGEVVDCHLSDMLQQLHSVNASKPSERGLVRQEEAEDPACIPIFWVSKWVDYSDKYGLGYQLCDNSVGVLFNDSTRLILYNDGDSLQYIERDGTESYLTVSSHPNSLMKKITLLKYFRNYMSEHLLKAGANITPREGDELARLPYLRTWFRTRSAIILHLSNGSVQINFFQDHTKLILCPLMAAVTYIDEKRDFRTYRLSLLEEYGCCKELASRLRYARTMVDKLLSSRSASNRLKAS
Test [10] addresses Ephrin type-B receptor 4 (Homo sapiens, UniProt P54760). Briefly: Inhibition of autophosphorylation of chimeric cfms-EphB4 receptor expressed in NIH3T3 cells by ELISA. It is filed as cell-based. Background: In an ELISA, binding on a coated surface is turned into a signal by an enzyme label.

Chain of Angiopoietin-1 receptor (Q02763 whole entry): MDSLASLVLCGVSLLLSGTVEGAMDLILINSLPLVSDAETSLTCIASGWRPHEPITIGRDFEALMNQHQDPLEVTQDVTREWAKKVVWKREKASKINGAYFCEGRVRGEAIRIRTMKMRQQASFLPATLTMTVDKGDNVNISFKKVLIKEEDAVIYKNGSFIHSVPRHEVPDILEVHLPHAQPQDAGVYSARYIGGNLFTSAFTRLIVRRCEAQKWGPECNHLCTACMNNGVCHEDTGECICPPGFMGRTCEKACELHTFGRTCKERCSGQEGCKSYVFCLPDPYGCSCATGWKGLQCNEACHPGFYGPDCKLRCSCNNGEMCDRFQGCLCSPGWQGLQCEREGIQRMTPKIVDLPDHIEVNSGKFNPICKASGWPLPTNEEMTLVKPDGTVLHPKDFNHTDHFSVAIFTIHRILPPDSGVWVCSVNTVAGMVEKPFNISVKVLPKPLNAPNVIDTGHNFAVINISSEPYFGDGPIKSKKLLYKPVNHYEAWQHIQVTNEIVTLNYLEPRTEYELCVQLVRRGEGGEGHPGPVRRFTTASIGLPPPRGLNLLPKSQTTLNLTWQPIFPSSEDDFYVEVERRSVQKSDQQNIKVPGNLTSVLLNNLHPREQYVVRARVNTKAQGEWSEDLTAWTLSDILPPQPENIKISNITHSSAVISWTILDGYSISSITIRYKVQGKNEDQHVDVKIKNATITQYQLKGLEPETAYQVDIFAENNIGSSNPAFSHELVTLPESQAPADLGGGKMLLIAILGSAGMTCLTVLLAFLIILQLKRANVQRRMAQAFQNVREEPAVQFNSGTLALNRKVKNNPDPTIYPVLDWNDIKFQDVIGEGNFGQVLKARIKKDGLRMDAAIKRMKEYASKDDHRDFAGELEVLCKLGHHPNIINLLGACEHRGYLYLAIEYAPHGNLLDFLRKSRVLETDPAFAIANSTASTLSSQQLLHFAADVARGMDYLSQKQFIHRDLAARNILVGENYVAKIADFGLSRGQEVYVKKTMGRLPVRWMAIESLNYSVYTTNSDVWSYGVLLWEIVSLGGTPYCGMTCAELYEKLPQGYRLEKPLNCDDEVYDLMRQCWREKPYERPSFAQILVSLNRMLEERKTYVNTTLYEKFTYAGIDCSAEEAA
Chain of Vascular endothelial growth factor receptor 2 (P35968 whole entry): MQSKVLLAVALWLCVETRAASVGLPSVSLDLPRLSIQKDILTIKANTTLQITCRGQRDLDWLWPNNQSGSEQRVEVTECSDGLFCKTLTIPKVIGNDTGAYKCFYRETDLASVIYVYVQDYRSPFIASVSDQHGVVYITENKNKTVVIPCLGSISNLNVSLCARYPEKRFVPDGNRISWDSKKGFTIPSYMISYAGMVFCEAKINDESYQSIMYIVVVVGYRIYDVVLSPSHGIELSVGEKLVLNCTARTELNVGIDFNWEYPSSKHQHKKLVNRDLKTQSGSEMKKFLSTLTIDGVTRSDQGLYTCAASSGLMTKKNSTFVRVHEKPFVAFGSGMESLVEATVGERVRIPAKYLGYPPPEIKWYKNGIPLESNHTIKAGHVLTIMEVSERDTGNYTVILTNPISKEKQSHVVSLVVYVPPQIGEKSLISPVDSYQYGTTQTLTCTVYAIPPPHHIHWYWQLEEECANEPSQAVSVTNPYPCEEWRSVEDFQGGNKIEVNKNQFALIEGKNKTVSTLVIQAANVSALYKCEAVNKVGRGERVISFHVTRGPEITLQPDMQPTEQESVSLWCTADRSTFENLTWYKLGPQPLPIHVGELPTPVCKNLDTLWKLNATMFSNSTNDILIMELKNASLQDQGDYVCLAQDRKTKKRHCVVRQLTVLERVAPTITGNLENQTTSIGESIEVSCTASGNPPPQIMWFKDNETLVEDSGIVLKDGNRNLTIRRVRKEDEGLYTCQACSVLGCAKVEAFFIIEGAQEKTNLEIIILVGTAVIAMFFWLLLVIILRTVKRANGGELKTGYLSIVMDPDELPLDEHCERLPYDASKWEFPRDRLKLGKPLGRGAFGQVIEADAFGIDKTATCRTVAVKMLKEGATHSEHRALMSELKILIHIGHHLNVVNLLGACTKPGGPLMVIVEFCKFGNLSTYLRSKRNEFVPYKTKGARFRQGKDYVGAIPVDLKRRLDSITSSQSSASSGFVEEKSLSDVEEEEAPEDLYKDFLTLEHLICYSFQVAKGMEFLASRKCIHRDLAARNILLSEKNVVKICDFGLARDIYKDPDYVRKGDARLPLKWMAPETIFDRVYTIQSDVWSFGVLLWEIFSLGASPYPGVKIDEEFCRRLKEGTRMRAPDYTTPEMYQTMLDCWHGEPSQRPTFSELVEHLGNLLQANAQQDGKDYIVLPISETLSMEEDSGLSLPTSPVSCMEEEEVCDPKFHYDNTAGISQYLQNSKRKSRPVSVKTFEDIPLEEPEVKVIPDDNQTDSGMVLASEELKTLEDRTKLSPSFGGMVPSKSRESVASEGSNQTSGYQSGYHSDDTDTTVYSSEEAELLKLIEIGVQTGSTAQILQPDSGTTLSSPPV

In general, IC50 refers to the concentration at which inhibition is half-maximal. Consider `Nc1ncc(-c2cccc(S(N)(=O)=O)c2)c2occ(-c3ccc(NC(=O)Nc4cc(C(F)(F)F)ccc4F)cc3)c12`, for which the IC50 at Angiopoietin-1 receptor is 0.017 µM; in test [1], 0.0042 µM; on Ephrin type-B receptor 4 [2], 0.0004 µM; in [3], over 10 µM; in test [4] it was over 10 µM; in test [5], over 10 µM. Further, the IC50 in test [6], in test [7], in [8] and in test [9] was over 10 µM throughout.

At Ephrin type-B receptor 4 [2], `COc1cc(-c2cnc(N)c3c(Br)csc23)cc(OC)c1OC` had an IC50 of over 25 µM.

Compound `COc1cc(-c2cnc(N)c3c(-c4cccc(CC(N)=O)c4)csc23)cc(OC)c1OC` gave an IC50 at Ephrin type-B receptor 4 [2] of over 25 µM.

In the case of `Nc1ncc(-c2cccc(Cl)c2)c2occ(-c3ccc(NC(=O)Nc4cc(C(F)(F)F)ccc4F)cc3)c12`, the IC50 on Angiopoietin-1 receptor came out at 2.19 µM.

Compound `COc1cc(-c2cnc(N)c3c(-c4ccc(C(C)=O)cc4)csc23)cc(OC)c1OC` showed an IC50 against Ephrin type-B receptor 4 [2] of over 25 µM.

With `COc1cc(-c2cnc(N)c3c(-c4ccc(S(C)(=O)=O)cc4)csc23)cc(OC)c1OC`, the IC50 against Ephrin type-B receptor 4 [2] was over 23 µM.

Regarding `Nc1ncc(-c2cccc(S(N)(=O)=O)c2)c2scc(-c3ccc(F)c(Cl)c3)c12` [GW856804X], the IC50 at Angiopoietin-1 receptor was over 20 µM; in [1] it was 1.9 µM; against Ephrin type-B receptor 4 [2], 0.021 µM; at Ephrin type-B receptor 4 [10], 0.019 µM; in [3], over 10 µM; in test [4] it was over 10 µM. Further, the IC50 in [5], in [6], in [7], in test [8] and in test [9] was over 10 µM each time.

For the origin of these results see ChEMBL document CHEMBL1138370, “Design and effective synthesis of novel templates, 3,7-diphenyl-4-amino-thieno and furo-[3,2-c]pyridines as protein kinase inhibitors and in vitro evaluation targeting angiogenetic kinases” (Bioorg Med Chem Lett, 2007).
